US11339193B2, “CDP protein secretion inhibitors” (KEZAR LIFE SCIENCES, priority 2018, dated 2022)
pEC50, pIC50: −log10 of the molar value. Read-outs that look alike come from different tables or passages of the source. Numbered stars: 1 amine (or outer) side, 2 acyl side, 3 side chain; on linkers, the order of the positions; unused ones are H or OH. Square brackets hold non-standard residues; d marks the D form. Peptide text beside a SMILES is read from it. NMeAla(5-Cl-benzothien-3-yl) = CN[C@@H](Cc1csc2ccc(Cl)cc12)C(=O)O; X19 = CN([C@@H](Cc1cn(Cc2ccc(Cl)cc2)c2ccccc12)C(=O)[*:2])[*:1]; Ala(1-cyclohexenyl) = N[C@@H](CC1=CCCCC1)C(=O)O; Butanoyl(2R-oxy,4-CN) = N#CCC[C@@H](O)C(=O)O; NMe3Pal(5-F) = CN[C@@H](Cc1cncc(F)c1)C(=O)O; X22 = CCCC[C@@H](C)C[C@H](N[*:1])C(=O)[*:2]; NMePhe(4-F) = CN[C@@H](Cc1ccc(F)cc1)C(=O)O; X28 = CCCC[C@H](C)C[C@H](N[*:1])C(=O)[*:2]; Abu(4,4,4-F3) = N[C@@H](CC(F)(F)F)C(=O)O; NMeL = CN[C@@H](CC(C)C)C(=O)O; NMeA = CN[C@@H](C)C(=O)O; dLac = C[C@@H](O)C(=O)O

How the values were obtained:
Assay type in all cases: cell-based
[1] = test system: HER3ss-Gluc; assay: HER3ss assay; conditions: HEK-293T T-rex cells, transient transfection, doxycycline, 24 h; read-out: HER3 ss IC50
Description: The mature domain of secreted luciferase from Gaussia princeps (GLuc) was cloned into pcDNA5/FRT/TO. The signal sequence plus four amino acids of the mature domain from HER3 ([…]) (SEQ ID NO:8) were cloned upstream of GLuc mature domain and used in transient transfection experiment. HEK-293T T-rex cells were cultured in Dulbecco's modified Eagle's medium with 10% FBS at 5% CO2. Cells were plated 1×10e6 cells per well in a 6-well plate and incubated for 6 h. Cells were transiently transfected with HER3ss-Gluc using Lipofectamine 2000 (Invitrogen). After overnight incubation, transfected cells were replated in a clear-bottomed, black 96-well plate at a density of 20,000 cells per well. Six hours after plating, the cells were treated with doxycycline (1 μg/ml) and increasing concentrations of the indicated compounds for 24 h. Secreted luciferase in the conditioned media was quantified by luminescence using the BioLux Gaussia Luciferase Assay Kit (New England Biolabs, Ipswich, Mass., USA) and a SpectraMax M5 plate reader (Molecular Devices).

[2] = test system: VCAMss+10aa/Gaussia Luciferase; assay: VCAM-ss-Gluc assay (constitutively active or Dox induced); conditions: Flp-In 293 T-REx cells, 24 hours
Description: Assays Constitutively Active VCAM-ss-Gluc Assay
Transfected cells were selected for resistance to the selectable markers Hygromycin and Blasticidin to create a stable cell line that constitutively expressed the VCAMss+ 10aa/Gaussia Luciferase fusion protein. The day before assay, cells were trypsinized and plated in 384-well tissue culture plates. The next day, culture media was removed from the wells and replaced with fresh media. Compound dilutions in DMSO/media were added to the wells and incubated at 37° C., 5% CO2.
Dox Induced VCAM-ss-Gluc Assay
Transfected cells were selected for resistance to the selectable markers Hygromycin and Blasticidin to create a stable cell line that contained the VCAMss+10aa/Gaussia Luciferase cDNA insert whose expression was regulated under the T-REx™ system. The day before assay, cells were trypsinized and plated in 384-well tissue culture plates. The next day, compound dilutions in DMSO/media containing doxycycline were added to the wells and incubated at 37° C., 5% CO2.

[3] = test system: U266B1 multiple myeloma cell line; assay: U266 assay (cell viability, Celltiter-Glo); conditions: Homo sapiens, U-266
Description: Cells were plated in 384-well tissue culture plates and treated with compound dilutions in DMSO/media. Plates were incubated at 37° C., 5% CO2 for 48 hours. After 48 hours, Celltiter-Glo@ (Promega) was added to each well and luciferase signal was quantified using Tecan Infinite M1000 Pro for cell viability determination.

[4] = test system: TNFα-FL/Gaussia Luciferase; assay: Dox induced TNFα-FL-Gluc assay; conditions: Flp-In 293 T-REx cells, doxycycline, 24 hours; read-out: TNFa FL Gluc IC50
In short: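 Stable Flp-In 293 T-REx line expressing full-length TNFα (aa 1-233) fused at its C-terminus to Gaussia luciferase under doxycycline-inducible control. Cells plated the day before, then given compound dilutions in DMSO/media containing doxycycline and incubated at 37 °C, 5% CO2.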

[5] = test system: Prl-ss+10aa/Gaussia Luciferase; assay: Prl-ss-Gluc assay (constitutively active or 24 hr Dox inducible); conditions: read-out: Prl IC50
In short: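 Stable Flp-In 293 T-REx lines express Prl signal sequence+10aa fused to Gaussia luciferase, either constitutively (pcDNA5/FRT) or under the T-REx promoter (pcDNA5/FRT/TO). Cells plated the day before; compounds in DMSO/media (with doxycycline for the inducible line, 24 h) incubated at 37 °C, 5% CO2.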

[6] = test system: PD1-ss+10aa/Gaussia Luciferase; assay: Dox induced PD1-ss-Gluc assay; conditions: Flp-In 293 T-REx cells, doxycycline, 24 hours; read-out: PD1ss Gluc IC50
In short: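 Stable Flp-In 293 T-REx line expressing doxycycline-inducible Gaussia luciferase fused to the PD1 signal sequence plus 10 amino acids. Cells plated the day before, then exposed to compound dilutions in DMSO/media containing doxycycline at 37 °C, 5% CO2.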

[7] = test system: NCI-H929 multiple myeloma cell line; assay: H929 assay (cell viability, Celltiter-Glo); conditions: Homo sapiens, NCI-H929; 48 hours, cell viability; read-out: H929 EC50
In short: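 Cells plated in RPMI 1640 with 10% FBS and 2 mM glutamine, treated with compound dilutions in DMSO/media. Incubation 48 h at 37° C, 5% CO2. Viability from luciferase luminescence signal.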

[8] = test system: BT474 breast tumor cell line; assay: BT474 assay (Alamar blue); conditions: Homo sapiens, BT-474, 72 h
Description: (§1) BT474 is a human breast tumor cell line. JJN3 is a human plasma cell leukemia cell line. […] Cells were seeded at 100 000 cells/mL. Aliquots of 5000 cells (50 μL) were added to each well in black, clear bottom 96-well plates. Compounds or control (50 uL of 1% DMSO in cell culture medium) were added to the cells to the indicated final concentrations and cells were incubated for 72 h (unless otherwise specified). After incubation was complete, Alamar blue (10 uL of a 1 mg/mL solution) was added to each well and plates were incubated for 5 h. Fluorescence was then measured (excitation 545 nm, emission 590 nm) and is reported as […] normalized to DMSO control.

[9] = test system: JJN3 plasma cell leukemia cell line; assay: JJN-3 assay (Alamar blue); conditions: Homo sapiens, 72 h
Description: as §1

[10] = Flp-In 293 T-REx cells, 24 hours

| pIC50 [1] | pIC50 [2] | pEC50 ([3]; 48 hours, cell viability) | pIC50 [4] | pIC50 [5, 10] | pIC50 [6] | pEC50 [7] | pEC50 [8] | pEC50 ([3]; I.A.) | pIC50 ([5]; I.A.) | Compound | pEC50 [9] |
| --- | --- | --- | --- | --- | --- | --- | --- | --- | --- | --- | --- |
| 6.35 | 6.45 |  |  |  |  |  |  |  |  | CC(C)C[C@@H]1NC(=O)[C@H](Cc2c[nH]c3ccccc23)N(C)C(=O)[C@H](CC(C)C)NC(=O)[C@H](CC(C)C)N(C)C(=O)[C@H](CC(C)C)NC(=O)[C@@H](CCC#N)OC(=O)[C@H](C)N(C)C1=O [C-71] (HELM PEPTIDE1{L.[meA].[N#CCC[C@@H](O[*:1])C(=O)[*:2]].L.[meL].L.[meW]}$PEPTIDE1,PEPTIDE1,1:R1-7:R2$$$V2.0) |  |
| 6.65 | 6.49 |  |  |  |  |  |  |  |  | CC(C)C[C@@H]1NC(=O)[C@H](Cc2cn(Cc3ccccc3)c3ccccc23)N(C)C(=O)[C@H](CC(C)C)NC(=O)[C@H](CC(C)C)N(C)C(=O)[C@H](CC(C)C)NC(=O)[C@@H](C)OC(=O)[C@H](C)N(C)C1=O [C-72] (HELM PEPTIDE1{L.[meA].[C[C@@H](O[*:1])C(=O)[*:2]].L.[meL].L.[CN([C@@H](Cc1cn(Cc2ccccc2)c2ccccc12)C(=O)[*:2])[*:1]]}$PEPTIDE1,PEPTIDE1,1:R1-7:R2$$$V2.0) |  |
|  | 5.50 |  |  |  |  |  |  |  |  | CC(C)C[C@@H]1NC(=O)[C@H](Cc2cn(Cc3ccccc3)nn2)N(C)C(=O)[C@H](CC(C)C)NC(=O)[C@H](CC(C)C)N(C)C(=O)[C@H](CC(C)C)NC(=O)[C@@H](CCC#N)OC(=O)[C@H](C)N(C)C1=O [C-73] |  |
| 7.19 |  |  | 5.86 |  | 6.83 | 5.25 |  | < 4.60 | < 4.60 | CC(C)C[C@@H]1NC(=O)[C@H](CC(C)C)N(C)C(=O)[C@H](CC(F)(F)F)NC(=O)[C@@H](CCC#N)OC(=O)[C@H](C)N(C)C(=O)[C@H](CC2=CCCCC2)NC(=O)[C@H](Cc2csc3ccc(Cl)cc23)N(C)C1=O [C-88] (cyclo(L[NMeAla(5-Cl-benzothien-3-yl)][Ala(1-cyclohexenyl)][NMeA][Butanoyl(2R-oxy,4-CN)][Abu(4,4,4-F3)][NMeL])) |  |
| 7.14 |  |  | 7.11 | 6.10 | 7.43 | 6.22 |  | < 4.60 |  | CC(C)C[C@@H]1NC(=O)[C@H](Cc2cn(Cc3ccc(Cl)cc3)c3ccccc23)N(C)C(=O)[C@H](CC(F)(F)F)NC(=O)[C@H](CC(C)C)N(C)C(=O)[C@H](CC(F)(F)F)NC(=O)[C@@H](CCC#N)OC(=O)[C@H](C)N(C)C1=O [C-84] (cyclo(L[NMeA][Butanoyl(2R-oxy,4-CN)][Abu(4,4,4-F3)][NMeL][Abu(4,4,4-F3)][X19])) |  |
|  | 5.77 |  |  |  |  |  |  |  |  | CCCC[C@H](C)C[C@@H]1NC(=O)[C@H](Cc2ccc(F)cc2)N(C)C(=O)[C@H](CC(C)C)NC(=O)[C@H](CC(C)C)N(C)C(=O)[C@H](CC(C)C)NC(=O)[C@@H](C)OC(=O)[C@H](C)N(C)C1=O [C-69] (cyclo(L[NMeL]L[NMePhe(4-F)][X28][NMeA][dLac])) |  |

The remaining lines, values behind:

| Compound | pIC50 [1] | pIC50 [2] | pEC50 ([3]; 48 hours, cell viability) | pIC50 [4] | pIC50 [5, 10] | pIC50 [6] | pEC50 [7] | pEC50 [8] | pEC50 ([3]; I.A.) | pIC50 ([5]; I.A.) | pEC50 [9] |
| --- | --- | --- | --- | --- | --- | --- | --- | --- | --- | --- | --- |
| CCCC[C@@H](C)C[C@@H]1NC(=O)[C@H](Cc2cncc(F)c2)N(C)C(=O)[C@H](CC(C)C)NC(=O)[C@H](CC(C)C)N(C)C(=O)[C@H](C[C@H](C)CCCC)NC(=O)[C@@H](CCC#N)OC(=O)[C@H](C)N(C)C1=O [C-24] (cyclo(L[NMe3Pal(5-F)][X22][NMeA][Butanoyl(2R-oxy,4-CN)][X22][NMeL])) |  | 7.66 | 5.26 | 6.88 | 5.78 | 7.07 | 5.83 |  |  |  |  |
| COc1ccccc1Cn1cc(C[C@H]2C(=O)N[C@@H](CC(C)C)C(=O)N(C)[C@@H](C)C(=O)O[C@H](CCC#N)C(=O)N[C@@H](CC(C)C)C(=O)N(C)[C@@H](CC(C)C)C(=O)N[C@@H](CC(C)C)C(=O)N2C)c2ccccc21 [C-32] (HELM PEPTIDE1{L.[meA].[N#CCC[C@@H](O[*:1])C(=O)[*:2]].L.[meL].L.[COc1ccccc1Cn1cc(C[C@@H](C(=O)[*:2])N(C)[*:1])c2ccccc21]}$PEPTIDE1,PEPTIDE1,1:R1-7:R2$$$V2.0) | 6.79 |  |  | 5.98 | 4.85 | 6.69 | 5.33 | 5.28 |  |  |  |
| CCCC[C@@H](C)C[C@@H]1NC(=O)[C@H](Cc2ccc(F)cn2)N(C)C(=O)[C@H](CC(C)C)NC(=O)[C@H](CC(C)C)N(C)C(=O)[C@H](C[C@H](C)CCCC)NC(=O)[C@@H](CCC#N)OC(=O)[C@H](C)N(C)C1=O [C-17] |  | 7.85 | 5.04 | 6.56 | 5.20 | 6.83 | 5.66 |  |  |  |  |
| CC(C)C[C@@H]1NC(=O)[C@H](Cc2ccccc2)N(C)C(=O)[C@H](CC(C)C)NC(=O)[C@H](CC(C)C)N(C)C(=O)[C@H](CC(C)C)NC(=O)[C@@H](C)OC(=O)[C@H](C)N(C)C1=O [C-34] (HELM PEPTIDE1{L.[meA].[C[C@@H](O[*:1])C(=O)[*:2]].L.[meL].L.[meF]}$PEPTIDE1,PEPTIDE1,1:R1-7:R2$$$V2.0) | 6.02 | 6.56 |  |  |  | 5.98 | 5.18 |  |  |  |  |
| CC(C)C[C@@H]1NC(=O)[C@H](Cc2cn(Cc3ccc(F)cc3)c3ccccc23)N(C)C(=O)[C@H](CC(C)C)NC(=O)[C@H](CC(C)C)N(C)C(=O)[C@H](CC(C)C)NC(=O)[C@@H](C)OC(=O)[C@H](C)N(C)C1=O [C-30] (HELM PEPTIDE1{L.[meA].[C[C@@H](O[*:1])C(=O)[*:2]].L.[meL].L.[CN([C@@H](Cc1cn(Cc2ccc(F)cc2)c2ccccc12)C(=O)[*:2])[*:1]]}$PEPTIDE1,PEPTIDE1,1:R1-7:R2$$$V2.0) |  |  |  |  |  |  |  |  |  |  | 4.85 |
| COc1ccc(Cn2cc(C[C@H]3C(=O)N[C@@H](CC(C)C)C(=O)N(C)[C@@H](C)C(=O)O[C@H](C)C(=O)N[C@@H](CC(C)C)C(=O)N(C)[C@@H](CC(C)C)C(=O)N[C@@H](CC(C)C)C(=O)N3C)c3ccccc32)cc1 [C-11] (HELM PEPTIDE1{L.[meA].[C[C@@H](O[*:1])C(=O)[*:2]].L.[meL].L.[COc1ccc(Cn2cc(C[C@@H](C(=O)[*:2])N(C)[*:1])c3ccccc32)cc1]}$PEPTIDE1,PEPTIDE1,1:R1-7:R2$$$V2.0) |  | 5.68 | 4.63 | 6.53 | 5.35 | 7.28 | 5.59 |  |  |  | 6.10 |
